Experimental data from paper PMC4420714 (Peptides, 2015).
Entries after “also recorded” stand apart in the source; their conditions may differ. Like-named read-outs stand apart in the source and are kept apart here.

Columns and labels:
VPAC1-R [1] = target: T1, VPAC1-R (Homo sapiens, UniProt P32241); experiment: Binding of 125I-VIP to VPAC1-R/PANC-1 cells; conditions: ratio of binding IC50, analog vs native parent peptide
T1 sequence (P32241 31-457): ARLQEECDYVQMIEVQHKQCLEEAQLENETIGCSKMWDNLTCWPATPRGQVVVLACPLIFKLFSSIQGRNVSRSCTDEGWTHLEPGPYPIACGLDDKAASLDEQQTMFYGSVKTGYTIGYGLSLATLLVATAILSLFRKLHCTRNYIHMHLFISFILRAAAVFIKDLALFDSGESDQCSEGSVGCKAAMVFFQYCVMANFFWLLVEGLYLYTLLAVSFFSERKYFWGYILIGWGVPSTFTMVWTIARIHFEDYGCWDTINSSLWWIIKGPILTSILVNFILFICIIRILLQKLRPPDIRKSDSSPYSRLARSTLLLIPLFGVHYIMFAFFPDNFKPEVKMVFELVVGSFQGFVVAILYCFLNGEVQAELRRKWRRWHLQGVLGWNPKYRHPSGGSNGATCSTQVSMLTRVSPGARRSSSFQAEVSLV

VPAC2-R [2] = target: T2, VPAC2-R (Homo sapiens, UniProt P41587); experiment: [3H]cAMP generation in VPAC2-R/PANC-1 cells; assay type: cell-based; conditions: for [3H]cAMP VPAC2-R/PANC-1 % max (agonist class): VPAC2-R/PANC-1 cells, relative to PACAP38, up to 1 µM
T2 sequence (P41587 24-438): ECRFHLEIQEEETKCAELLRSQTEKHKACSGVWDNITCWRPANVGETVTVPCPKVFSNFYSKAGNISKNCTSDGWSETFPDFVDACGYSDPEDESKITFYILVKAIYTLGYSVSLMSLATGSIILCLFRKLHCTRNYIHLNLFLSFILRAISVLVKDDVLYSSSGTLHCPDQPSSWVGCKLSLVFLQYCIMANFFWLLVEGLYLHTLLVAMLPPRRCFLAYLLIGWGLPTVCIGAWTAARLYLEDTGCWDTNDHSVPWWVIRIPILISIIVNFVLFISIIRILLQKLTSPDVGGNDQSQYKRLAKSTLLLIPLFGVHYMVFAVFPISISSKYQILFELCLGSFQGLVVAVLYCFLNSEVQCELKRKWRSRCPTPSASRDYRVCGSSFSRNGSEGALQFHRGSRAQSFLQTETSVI

VPAC2-R [3] = target: T2, VPAC2-R; experiment: Binding of 125I-PACAP27 to VPAC2-R/PANC-1 cells; conditions: ratio of binding IC50, analog vs native parent peptide
VPAC1-R [4] = target: T1, VPAC1-R; experiment: [3H]cAMP generation in T47D cells; assay type: cell-based; conditions: for [3H]cAMP T47D % max (agonist class): relative to PACAP38, up to 1 µM
VPAC1-R [5] = target: T1, VPAC1-R; experiment: [3H]cAMP generation in VPAC1-R/PANC-1 cells; assay type: cell-based; conditions: for [3H]cAMP VPAC1-R/PANC-1 % max (agonist class): relative to PACAP38, up to 1 µM
PAC1-R [6] = target: T3, PAC1-R (Homo sapiens, UniProt P41586); experiment: Binding of 125I-PACAP27 to PAC1-R stably transfected NIH 3T3 cells
T3 sequence (P41586 21-468): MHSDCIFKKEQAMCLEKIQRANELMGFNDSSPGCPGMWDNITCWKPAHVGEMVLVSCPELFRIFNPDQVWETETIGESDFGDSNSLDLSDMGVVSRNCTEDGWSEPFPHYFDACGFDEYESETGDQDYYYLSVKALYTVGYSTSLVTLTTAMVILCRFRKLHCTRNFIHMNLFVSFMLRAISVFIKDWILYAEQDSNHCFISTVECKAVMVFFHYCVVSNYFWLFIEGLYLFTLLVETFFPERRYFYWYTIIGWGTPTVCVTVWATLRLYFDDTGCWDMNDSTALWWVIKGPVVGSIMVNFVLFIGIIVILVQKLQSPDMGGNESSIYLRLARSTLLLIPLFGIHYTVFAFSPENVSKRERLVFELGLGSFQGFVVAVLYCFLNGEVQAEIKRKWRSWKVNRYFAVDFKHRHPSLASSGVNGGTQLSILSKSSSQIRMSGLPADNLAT

PAC1-R [7] = target: T3, PAC1-R; experiment: [3H]cAMP generation in PAC1-R cells; assay type: cell-based

Substance	[3H]cAMP VPAC2-R/PANC-1 % max (agonist class) (VPAC2-R [2])	decrease in affinity for VPAC2-R/PANC-1 cells compared to native PACAP38 (or PACAP27, VIP) (VPAC2-R [3])	also measured
[Me-Lys^15]PACAP27 [Peptide P2]	Ag (1 µM, 19)	6–132 fold	decrease in affinity for VPAC1-R/PANC-1 cells compared to native PACAP38 (or PACAP27, VIP) (VPAC1-R [1]): 100–500 fold; [3H]cAMP T47D % max (agonist class) (VPAC1-R [4]): No Act; [3H]cAMP VPAC1-R/PANC-1 % max (agonist class) (VPAC1-R [5]; VPAC1-R/PANC-1 cells): Ag (1 µM, 68)
[Me-Asp^3,Aib^16,28,Lys^34,D-Lys^38]PACAP38 [Peptide P33]		40–85 fold	
[Pip^3,Aib^16,28,Ala^17,Lys^34,D-Lys^38]PACAP38 [Peptide P35]	Ag (1 µM, 33)	50–400 fold	
[D-Ser^2,Lys(Palmitoyl)^38]PACAP38 [Peptide P13]		16–21 fold	
[Sar^4]PACAP27 [Peptide P22]	no agonist activity; also recorded: No Act	6–132 fold	decrease in affinity for VPAC1-R/PANC-1 cells compared to native PACAP38 (or PACAP27, VIP) (VPAC1-R [1]): 100–500 fold; [3H]cAMP T47D % max (agonist class) (VPAC1-R [4]): No Act; [3H]cAMP VPAC1-R/PANC-1 % max (agonist class) (VPAC1-R [5]; VPAC1-R/PANC-1 cells): no agonist activity; also recorded: No Act
[Sar^3]PACAP27 [Peptide P6]	no agonist activity; also recorded: No Act	6–132 fold	decrease in affinity for VPAC1-R/PANC-1 cells compared to native PACAP38 (or PACAP27, VIP) (VPAC1-R [1]): 100–500 fold; [3H]cAMP T47D % max, agonist activity at 1 µM, still increasing (VPAC1-R [4]): Ag (1 µM, 69) % max; [3H]cAMP T47D % max (agonist class) (VPAC1-R [4]): Ag (1 µM, 69)
[Iaa^1,D-Tyr^2,Ala^22]PACAP38 [Peptide P49]		50–400 fold	
[Aib^2]PACAP38 [Peptide P15]			decrease in affinity for PAC1-R cells compared to native PACAP38 (or PACAP27) (PAC1-R [6]): 11–30 fold; lower affinity for PAC1-R cells than VPAC2-R/PANC-1 cells (PAC1-R [6]): 2–9 fold
[Aib^16,Ala^17,Lys^34]PACAP38 [Peptide P30]		2-to-6 fold	
[Pip^3,Aib^16,28,Ala^17,21,Lys^34,D-Lys^38]PACAP38 [Peptide P40]	no agonist activity; also recorded: No Act		
[N-Ac-His^1,Ala^16,17,D-Lys^38]PACAP38 [Peptide P28]		2-to-6 fold	
[Pip^3,Ala^15,17,Aib^16,28,Lys^34,D-Lys^38]PACAP38 [Peptide P38]	no agonist activity; also recorded: No Act		
[Ala^16,17,D-Lys^38]PACAP38 [Peptide P23]		2-to-6 fold	
[Pip^3,Aib^16,28,Ala^17,20,Lys^34,D-Lys^38]PACAP38 [Peptide P41]	no agonist activity; also recorded: No Act		
[N-Ac-His^1,Pip^3,Aib^16,Ala^17]PACAP27 [Peptide P8]	Ag (1 µM, 13)		decrease in affinity for VPAC1-R/PANC-1 cells compared to native PACAP38 (or PACAP27, VIP) (VPAC1-R [1]): > 1,000 fold; [3H]cAMP T47D % max (agonist class) (VPAC1-R [4]): No Act; [3H]cAMP VPAC1-R/PANC-1 % max of partial agonist (VPAC1-R [5]; VPAC1-R/PANC-1 cells, partial agonist maximum): pAg (24) % max; [3H]cAMP VPAC1-R/PANC-1 % max (agonist class) (VPAC1-R [5]; VPAC1-R/PANC-1 cells): partial agonists; also recorded: pAg (24)
[Pip^3,Ala^14,17,Aib^16,28,Lys^34,D-Lys^38]PACAP38 [Peptide P39]	no agonist activity; also recorded: No Act		
[Lys(palmitoyl)^38]PACAP38 [Peptide P12]		16–21 fold	
[Iac^1,Ala^16,17,D-Lys^38]PACAP38 [Peptide P29]		2-to-6 fold	
[Aib^16,28,Ala^17,Lys^34,D-Lys^38]PACAP38 [Peptide P34]		2-to-6 fold	
[Iaa^1,D-Ser^2,Ala^22]PACAP38 [Peptide P48]	Ag (1 µM, 43)	50–400 fold	
[Hyp^3,Aib^16,Ala^17,Lys^34]PACAP38 [Peptide P31]		50–400 fold	
[Sar^3]PACAP38 [Peptide P19]	Ag (1 µM, 35)	15–500 fold	
[Pip^3]PACAP38 [Peptide P26]	no agonist activity; also recorded: No Act	15–500 fold	
[Pip^3,Aib^16,Ala^17]PACAP27 [Peptide P7]	no agonist activity; also recorded: No Act		decrease in affinity for VPAC1-R/PANC-1 cells compared to native PACAP38 (or PACAP27, VIP) (VPAC1-R [1]): > 1,000 fold; [3H]cAMP T47D % max (agonist class) (VPAC1-R [4]): No Act; [3H]cAMP VPAC1-R/PANC-1 % max (agonist class) (VPAC1-R [5]; VPAC1-R/PANC-1 cells): no agonist activity; also recorded: No Act
[Hyp^3,Ala^16,17]PACAP38 [Peptide P20]	Ag (1 µM, 35)	50–400 fold	
vasoactive intestinal peptide [VIP, reference compound]			maximal increase in cAMP, VPAC2-R/PANC-1 cells (VPAC2-R [2]): 6.5 ± 2.0 fold; [3H]cAMP PAC1-R % max (agonist class) (PAC1-R [7]): No Act; less potent than PACAP38 and PACAP27 at stimulating PAC1-R cells (PAC1-R [7]; cAMP generation): > 800 fold; maximal increase in cAMP, PAC1-R cells (PAC1-R [7]; over control): 4.1 ± 1.5 fold; maximal increase in cAMP, VPAC1-R/PANC-1 cells (VPAC1-R [5]): 5.0 ± 0.7 fold; lower affinity for PAC1-R cells than VPAC1-R/PANC-1 cells (PAC1-R [6]; binding IC50 ratio, VPAC1-R preferring): > 1,000 fold; lower affinity for PAC1-R cells than VPAC2-R/PANC-1 cells (PAC1-R [6]; binding IC50 ratio, VPAC2-R preferring): > 400 fold
[Pro^3]PACAP27 [Peptide P5]	no agonist activity; also recorded: No Act	6–132 fold	decrease in affinity for VPAC1-R/PANC-1 cells compared to native PACAP38 (or PACAP27, VIP) (VPAC1-R [1]): 100–500 fold; [3H]cAMP T47D % max, agonist activity at 1 µM, still increasing (VPAC1-R [4]): Ag (1 µM, 16) % max; [3H]cAMP T47D % max (agonist class) (VPAC1-R [4]): Ag (1 µM, 16); [3H]cAMP VPAC1-R/PANC-1 % max (agonist class) (VPAC1-R [5]; VPAC1-R/PANC-1 cells): Ag (1 µM, 23)
[β-Ala^3,Ala^16,17]PACAP38 [Peptide P21]	no agonist activity; also recorded: No Act	50–400 fold	
[N-Ac-His^1,Pip^3]PACAP38 [Peptide P27]	Ag (1 µM, 18)	15–500 fold	
[Pro^3]PACAP38 [Peptide P18]	Ag (1 µM, 26)	15–500 fold	
